Laboratory results from ChEMBL document CHEMBL3102774, “Semisynthesis of salviandulin E analogues and their antitrypanosomal activity” (Bioorg Med Chem Lett, 2014).
In brackets after ≈: the same amount, converted by molar mass.

Assays:
[1] = Selectivity index, ratio of IC50 for human MRC5 cells to IC50 for Trypanosoma brucei brucei GUTat 3.1; type: toxicity, cell-based; conditions: read-out: Ratio IC50
[2] = test system: MRC5; assay: Cytotoxicity against human MRC5 cells; type: cell-based
[3] = test system: Trypanosoma brucei brucei; assay: Antitrypanosomal activity against Trypanosoma brucei brucei GUTat 3.1 after 72 hrs by AlamarBlue assay; type: functional, organism-based; conditions: GUTat 3.1, 72 h

Row | Compound | selectivity ratio [1] | IC50 [2] | IC50 [3]
1 | CC1=C2C[C@@H](O)C=C3C(=O)OC[C@]32C=CC2=C1[C@H](c1ccoc1)OC2=O | 1.17 | 0.84 µg/mL (≈ 2.38 µM) | 0.72 µg/mL (≈ 2.04 µM)
2 | CC1=C2CCC=C3C(=O)OC[C@]32CCC2=C1[C@H](c1ccoc1)OC2=O |  | 16.2 µg/mL (≈ 47.8 µM) | > 12.5 µg/mL
3 | CC(=O)O[C@H]1C=C2C(=O)OC[C@]23C=CC2=C(C(C)=C3C1)[C@H](c1ccoc1)OC2=O | 1.22 | 0.84 µg/mL (≈ 2.13 µM) | 0.69 µg/mL (≈ 1.75 µM)
4 | CCC(=O)O[C@H]1C=C2C(=O)OC[C@]23C=CC2=C(C(C)=C3C1)[C@H](c1ccoc1)OC2=O | 0.59 | 1.41 µg/mL (≈ 3.45 µM) | 2.39 µg/mL (≈ 5.85 µM)
5 | CCCC(=O)O[C@H]1C=C2C(=O)OC[C@]23C=CC2=C(C(C)=C3C1)[C@H](c1ccoc1)OC2=O | 1.01 | 1.05 µg/mL (≈ 2.49 µM) | 1.04 µg/mL (≈ 2.46 µM)
6 | CCNC(=O)O[C@H]1C=C2C(=O)OC[C@]23C=CC2=C(C(C)=C3C1)[C@H](c1ccoc1)OC2=O | 0.9 | 0.18 µg/mL (≈ 0.425 µM) | 0.2 µg/mL (≈ 0.472 µM)
7 | CCCCNC(=O)O[C@H]1C=C2C(=O)OC[C@]23C=CC2=C(C(C)=C3C1)[C@H](c1ccoc1)OC2=O | 7.29 | 44.3 µg/mL (≈ 98.1 µM) | 6.08 µg/mL (≈ 13.5 µM)
8 | CC1=C2C[C@@H](OC(=O)Nc3ccccc3)C=C3C(=O)OC[C@]32C=CC2=C1[C@H](c1ccoc1)OC2=O | 2.41 | 17.3 µg/mL (≈ 36.6 µM) | 7.17 µg/mL (≈ 15.2 µM)
9 | COCO[C@H]1C=C2C(=O)OC[C@]23C=CC2=C(C(C)=C3C1)[C@H](c1ccoc1)OC2=O | 1.73 | 2 µg/mL (≈ 5.05 µM) | 1.15 µg/mL (≈ 2.9 µM)
10 | CC1=C2C[C@@H](O)C[C@H]3C(=O)OC[C@@]23C=CC2=C1[C@H](c1ccoc1)OC2=O |  |  | > 12.5 µg/mL
11 | CC(=O)O[C@@H]1CC2=C(C)C3=C(C=C[C@]24COC(=O)[C@@H]4C1)C(=O)O[C@H]3c1ccoc1 | > 12.9 | > 100 µg/mL | 7.73 µg/mL (≈ 19.5 µM)
12 | CCC(=O)O[C@@H]1CC2=C(C)C3=C(C=C[C@]24COC(=O)[C@@H]4C1)C(=O)O[C@H]3c1ccoc1 | 11.9 | 63.5 µg/mL (≈ 155 µM) | 5.33 µg/mL (≈ 13 µM)
13 | CCCC(=O)O[C@@H]1CC2=C(C)C3=C(C=C[C@]24COC(=O)[C@@H]4C1)C(=O)O[C@H]3c1ccoc1 | 1240 | 68 µg/mL (≈ 160 µM) | 0.055 µg/mL (≈ 0.13 µM)
14 | CCNC(=O)O[C@@H]1CC2=C(C)C3=C(C=C[C@]24COC(=O)[C@@H]4C1)C(=O)O[C@H]3c1ccoc1 |  |  | > 12.5 µg/mL
15 | CCCNC(=O)O[C@@H]1CC2=C(C)C3=C(C=C[C@]24COC(=O)[C@@H]4C1)C(=O)O[C@H]3c1ccoc1 | 8.51 | 66.2 µg/mL (≈ 151 µM) | 7.77 µg/mL (≈ 17.7 µM)
16 | CC1=C2C[C@@H](OC(=O)Nc3ccccc3)C[C@H]3C(=O)OC[C@@]23C=CC2=C1[C@H](c1ccoc1)OC2=O | > 9.5 | > 100 µg/mL | 10.5 µg/mL (≈ 22.3 µM)
17 | COCO[C@@H]1CC2=C(C)C3=C(C=C[C@]24COC(=O)[C@@H]4C1)C(=O)O[C@H]3c1ccoc1 |  |  | > 12.5 µg/mL
18 | CC(=O)OC1=CC2=C(C)C3=C(C=C[C@]24COC(=O)[C@@H]4C1)C(=O)O[C@H]3c1ccoc1 | 4.14 | 17.8 µg/mL (≈ 45.1 µM) | 4.29 µg/mL (≈ 10.9 µM)
19 | CCC(=O)OC1=CC2=C(C)C3=C(C=C[C@]24COC(=O)[C@@H]4C1)C(=O)O[C@H]3c1ccoc1 | 4.06 | 22.6 µg/mL (≈ 55.3 µM) | 5.56 µg/mL (≈ 13.6 µM)
20 | CCCC(=O)OC1=CC2=C(C)C3=C(C=C[C@]24COC(=O)[C@@H]4C1)C(=O)O[C@H]3c1ccoc1 | 5.54 | 21.6 µg/mL (≈ 51 µM) | 3.89 µg/mL (≈ 9.21 µM)
21 | CC1=C2C=CC[C@H]3C(=O)OC[C@@]23C=CC2=C1[C@H](c1ccoc1)OC2=O |  |  | > 12.5 µg/mL
22 | NCCCC(N)(C(=O)O)C(F)F (stereo not given) [EFLORNITHINE] | > 44 | > 100 µg/mL | 
23 | N=C(N)c1ccc(OCCCCCOc2ccc(C(=N)N)cc2)cc1 [PENTAMIDINE] | 3350 |  | 0.0017 µg/mL (≈ 0.00499 µM)
24 | Cc1ccc(C(=O)Nc2ccc(S(=O)(=O)O)c3cc(S(=O)(=O)O)cc(S(=O)(=O)O)c23)cc1NC(=O)c1cccc(NC(=O)Nc2cccc(C(=O)Nc3cc(C(=O)Nc4ccc(S(=O)(=O)O)c5cc(S(=O)(=O)O)cc(S(=O)(=O)O)c45)ccc3C)c2)c1 [SURAMIN] | > 63 | > 100 µg/mL | 
